Experimental data taken from ChEMBL document CHEMBL6134916, “Novel Substituted Cyclic Compounds as SLC6A19 Inhibitors for Treating Phenylketonuria and Other Amino Acidurias” (ACS Med Chem Lett, 2025).

Target: T1, Sodium-dependent neutral amino acid transporter B(0)AT1 (Homo sapiens, UniProt Q695T7)
T1 sequence (Q695T7 whole entry): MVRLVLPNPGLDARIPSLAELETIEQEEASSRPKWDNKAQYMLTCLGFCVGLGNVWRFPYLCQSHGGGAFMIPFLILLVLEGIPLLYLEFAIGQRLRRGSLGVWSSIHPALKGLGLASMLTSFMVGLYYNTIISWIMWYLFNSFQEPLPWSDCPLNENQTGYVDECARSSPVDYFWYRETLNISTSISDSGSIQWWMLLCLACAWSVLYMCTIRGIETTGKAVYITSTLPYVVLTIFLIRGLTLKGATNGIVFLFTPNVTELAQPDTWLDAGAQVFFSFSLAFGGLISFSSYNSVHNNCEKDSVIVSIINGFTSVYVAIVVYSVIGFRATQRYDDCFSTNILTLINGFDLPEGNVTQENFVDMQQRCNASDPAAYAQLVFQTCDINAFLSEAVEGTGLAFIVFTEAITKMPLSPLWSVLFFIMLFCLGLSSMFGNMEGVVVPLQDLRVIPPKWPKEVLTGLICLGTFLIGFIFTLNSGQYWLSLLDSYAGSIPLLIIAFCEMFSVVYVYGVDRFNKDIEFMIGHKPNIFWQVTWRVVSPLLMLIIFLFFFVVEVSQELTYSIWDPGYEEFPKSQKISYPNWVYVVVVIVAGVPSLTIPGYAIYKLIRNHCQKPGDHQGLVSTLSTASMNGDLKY
Test: Inhibition of human SLC6A19 expressed in MDCK cells co-expressing human TMEM27 using 13C6/15N-L-Isoleucine as substrate preincubated for 20 mins followed by substrate addition and measured after 20 mins by stable isotope uptake assay
Assay type: cell-based

SMILES | IC50 [nM]
CNC(=O)c1cc2c(-c3ccc(C(=O)NCc4cccc(C(F)(F)F)c4)cc3)c(OC)ccc2[nH]1 | 5
CNC(=O)c1cc2c(-c3ccc(C(=O)NCc4cccc(C(F)(F)F)c4)cc3)cc(C)c(F)c2[nH]1 | 5
CNC(=O)c1cc2c(-c3ccc(C(=O)NCc4cccc(C(F)(F)F)c4)cc3)cc(C(C)C)cc2[nH]1 | 5

Next, values leading:

IC50 [nM] | SMILES
4 | CNC(=O)c1cc2c(-c3ccc(C(=O)NCc4cc(C(F)(F)F)ccc4F)cc3F)cccc2[nH]1
4 | CNC(=O)c1cc2c(-c3ccc(C(=O)NCc4cccc(C(F)(F)F)c4)cc3)ccc(F)c2[nH]1
3 | CNC(=O)c1cc2c(-c3ccc(C(=O)NCc4cccc(C(F)(F)F)c4)cc3Cl)cccc2[nH]1
